Patent US8992932B2, “Binder-drug conjugates (ADCs) and use thereof” (Seattle Genetics, Inc., priority 2011, dated 2015)
Counter-ions that a name gives are not always drawn. Square brackets hold non-standard residues; d marks the D form. Peptide text beside a SMILES is read from it. * marks the point of attachment. X2 = CC(C)[C@@H](C(=O)*)N(C)CCCCCCN1C(=O)CC(SC[C@H](N)C(=O)O)C1=O; X1 = CC(C)[C@@H](C(=O)*)N(C)CCCCCC(=O)NCCCC[C@H](N)C(=O)O; Dolaproine = CO[C@@H]([C@@H]1CCCN1)[C@@H](C)C(=O)O; Dil = CC[C@H](C)[C@H](NC)[C@@H](CC(=O)O)OC; Oxazinan2yl(1,2) = C1CCN(*)OC1

System: Caco-2 cells
Assay: Cell permeability flux assay using Caco-2 cells
Format: in vitro ADME
Settings: basal to apical, 2 hours
Experimental: The cell permeability of a substance can be investigated by means of in vitro testing in a flux assay using Caco-2 cells [M. D. Troutman and D R Thakker, Pharm. Res. 20 (8), 1210-1224 (2003)]. For this purpose, the cells were cultured for 15-16 days on 24-well filter plates. For the determination of permeation, the respective working example was applied in a HEPES buffer to the cells either apically (A) or basally (B) and incubated for 2 hours. After 0 hours and after 2 hours, samples were taken from the cis and trans compartments. The samples were separated by HPLC (Agilent 1200, Boblingen, Germany) using reverse phase columns. The HPLC system was coupled via a Turbo Ion Spray Interface to a Triple Quadropol mass spectrometer API 4000 (Applied Biosystems Applera, Darmstadt, Germany). The permeability was evaluated on the basis of a Papp value, which was calculated using the formula published by Schwab et al. [D. Schwab et al., J. Med. Chem. 46, 1716-1725 (2003)].

Row | SMILES | Papp (B-A) [nm/s]
1 | CC[C@H](C)[C@@H]([C@@H](CC(=O)N1CCC[C@H]1[C@H](OC)[C@@H](C)C(=O)N[C@@H](Cc1c[nH]c2ccccc12)C(N)=O)OC)N(C)C(=O)[C@@H](NC(=O)[C@H](C(C)C)N(C)CCCC(=O)NNC(=O)CCCCCN1C(=O)CC(SC[C@H](N)C(=O)O)C1=O)C(C)C (stereo partly drawn) [Example 71, N-(4-{2-[6-(3-{[(2R)-2-Amino-2-carboxyethyl]sulphanyl}-2,5-dioxopyrrolidin-1-yl)hexanoyl]hydrazino}-4-oxobutyl)-N-methyl-L-valyl-N-[(3R,4S,5S)-1-{(2S)-2-[(1R,2R)-3-{[(2S)-1-amino-3-(1H-indol-3-yl)-1-oxopropan-2-yl]amino}-1-methoxy-2-methyl-3-oxopropyl]pyrrolidin-1-yl}-3-methoxy-5-methyl-1-oxoheptan-4-yl]-N-methyl-L-valinamide] | 2
2 | CC[C@H](C)[C@@H]([C@@H](CC(=O)N1CCC[C@H]1[C@H](OC)[C@@H](C)C(=O)N[C@@H](Cc1c[nH]c2ccccc12)C(=O)O)OC)N(C)C(=O)[C@@H](NC(=O)[C@H](C(C)C)N(C)CCCC(=O)NNC(=O)CCCCCN1C(=O)CC(SC[C@H](N)C(=O)O)C1=O)C(C)C (stereo partly drawn) [Example 72, N-(4-{2-[6-(3-{[(2R)-2-Amino-2-carboxyethyl]sulphanyl}-2,5-dioxopyrrolidin-1-yl)hexanoyl]hydrazino}-4-oxobutyl)-N-methyl-L-valyl-N-[(3R,4S,5S)-1-{(2S)-2-[(1R,2R)-3-{[(1S)-1-carboxy-2-(1H-indol-3-yl)ethyl]amino}-1-methoxy-2-methyl-3-oxopropyl]pyrrolidin-1-yl}-3-methoxy-5-methyl-1-oxoheptan-4-yl]-N-methyl-L-valinamide] | 1.6
3 | CC[C@H](C)[C@@H]([C@@H](CC(=O)N1CCC[C@H]1[C@H](OC)[C@@H](C)C(=O)N[C@@]1(C(=O)N2CCCCO2)C[C@@H]1c1ccccc1)OC)N(C)C(=O)[C@@H](NC(=O)[C@H](C(C)C)N(C)CCCC(=O)NNC(=O)CCCCCN1C(=O)CC(SC[C@H](N)C(=O)O)C1=O)C(C)C (stereo partly drawn) [Example 73, N-(4-{2-[6-(3-{[(2R)-2-Amino-2-carboxyethyl]sulphanyl}-2,5-dioxopyrrolidin-1-yl)hexanoyl]hydrazino}-4-oxobutyl)-N-methyl-L-valyl-N-[(3R,4S,5S)-3-methoxy-1-{(2S)-2-[(1R,2R)-1-methoxy-2-methyl-3-{[(1S,2R)-1-(1,2-oxazinan-2-ylcarbonyl)-2-phenylcyclopropyl]amino}-3-oxopropyl]pyrrolidin-1-yl}-5-methyl-1-oxoheptan-4-yl]-N-methyl-L-valinamide] | 2.5
4 | CC[C@H](C)[C@@H]([C@@H](CC(=O)N1CCC[C@H]1[C@H](OC)[C@@H](C)C(=O)N[C@@H](Cc1c[nH]c2ccccc12)C(N)=O)OC)N(C)C(=O)[C@@H](NC(=O)[C@H](C(C)C)N(C)CCCCCCN1C(=O)CC(SC[C@H](N)C(=O)O)C1=O)C(C)C (stereo partly drawn) [Example 74, N-[6-(3-{[(2R)-2-Amino-2-carboxyethyl]sulphanyl}-2,5-dioxopyrrolidin-1-yl)hexyl]-N-methyl-L-valyl-N-[(3R,4S,5S)-1-{(2S)-2-[(1R,2R)-3-{[(2S)-1-amino-3-(1H-indol-3-yl)-1-oxopropan-2-yl]amino}-1-methoxy-2-methyl-3-oxopropyl]pyrrolidin-1-yl}-3-methoxy-5-methyl-1-oxoheptan-4-yl]-N-methyl-L-valinamide] (X2-V[Dil][Dolaproine]W-NH2) | 5
5 | CC[C@H](C)[C@@H]([C@@H](CC(=O)N1CCC[C@H]1[C@H](OC)[C@@H](C)C(=O)N[C@@H](Cc1c[nH]c2ccccc12)C(=O)NCc1ccccc1)OC)N(C)C(=O)[C@@H](NC(=O)[C@H](C(C)C)N(C)CCCC(=O)NNC(=O)CCCCCN1C(=O)CC(SC[C@H](N)C(=O)O)C1=O)C(C)C (stereo partly drawn) [Example 77, N-(4-{2-[6-(3-{[(2R)-2-Amino-2-carboxyethyl]sulphanyl}-2,5-dioxopyrrolidin-1-yl)hexanoyl]hydrazino}-4-oxobutyl)-N-methyl-L-valyl-N-[(3R,4S,5S)-1-{(2S)-2-[(1R,2R)-3-{[(2S)-1-(benzylamino)-3-(1H-indol-3-yl)-1-oxopropan-2-yl]amino}-1-methoxy-2-methyl-3-oxopropyl]pyrrolidin-1-yl}-3-methoxy-5-methyl-1-oxoheptan-4-yl]-N-methyl-L-valinamide] | 7
6 | CC[C@H](C)[C@@H]([C@@H](CC(=O)N1CCC[C@H]1[C@H](OC)[C@@H](C)C(=O)N[C@@H](Cc1c[nH]c2ccccc12)C(=O)N1CCCCO1)OC)N(C)C(=O)[C@@H](NC(=O)[C@H](C(C)C)N(C)CCCCCC(=O)NCCCC[C@H](N)C(=O)O)C(C)C [Example 115, N-(6-{[(55)-5-Amino-5-carboxypentyl]amino}-6-oxohexyl)-N-methyl-L-valyl-N-[(3R,4S,5S)-1-{(2S)-2-[(1R,2R)-3-{[(2S)-3-(1H-indol-3-yl)-1-(1,2-oxazinan-2-yl)-1-oxopropan-2-yl]amino}-1-methoxy-2-methyl-3-oxopropyl]pyrrolidin-1-yl}-3-methoxy-5-methyl-1-oxoheptan-4-yl]-N-methyl-L-valinamide trifluoroacetate] (X1-V[Dil][Dolaproine]W-{Oxazinan2yl(1,2)}) | 2
7 | CC[C@H](C)[C@@H]([C@@H](CC(=O)N1CCC[C@H]1[C@H](OC)[C@@H](C)C(=O)N[C@@H](Cc1c[nH]c2ccccc12)C(=O)O)OC)N(C)C(=O)[C@@H](NC(=O)[C@H](C(C)C)N(C)CCCCCC(=O)NCCCC[C@H](N)C(=O)O)C(C)C [Example 116, N-(6-{[(55)-5-Amino-5-carboxypentyl]amino}-6-oxohexyl)-N-methyl-L-valyl-N-[(3R,4S,5S)-1-{(2S)-2-[(1R,2R)-3-{[(1S)-1-carboxy-2-(1H-indol-3-yl)ethyl]amino}-1-methoxy-2-methyl-3-oxopropyl]pyrrolidin-1-yl}-3-methoxy-5-methyl-1-oxoheptan-4-yl]-N-methyl-L-valinamide] (X1-V[Dil][Dolaproine]W-OH) | 1
8 | CC[C@H](C)[C@@H]([C@@H](CC(=O)N1CCC[C@H]1[C@H](OC)[C@@H](C)C(=O)N[C@@H](Cc1ccc(O)cc1)C(=O)N1CCCCO1)OC)N(C)C(=O)[C@@H](NC(=O)[C@H](C(C)C)N(C)CCCCCC(=O)NCCCC[C@H](N)C(=O)O)C(C)C [Example 127, N-(6-{[(55)-5-Amino-5-carboxypentyl]amino}-6-oxohexyl)-N-methyl-L-valyl-N-[(3R,4S,5S)-1-{(2S)-2-[(1R,2R)-3-{[(2S)-3-(4-hydroxyphenyl)-1-(1,2-oxazinan-2-yl)-1-oxopropan-2-yl]amino}-1-methoxy-2-methyl-3-oxopropyl]pyrrolidin-1-yl}-3-methoxy-5-methyl-1-oxoheptan-4-yl]-N-methyl-L-valinamide trifluoroacetate] (X1-V[Dil][Dolaproine]Y-{Oxazinan2yl(1,2)}) | 1.5
